Strand notation (5' to 3'): a small letter for the sugar, then the base; units joined by * are phosphorothioate-linked, units joined directly phosphodiester-linked; [ ] holds rarer units or linkages, { } end groups; capitals alone tell only the bases. e = 2'-O-(2-methoxyethyl) (MOE); [5mC] = 5-methylcytosine; d = 2'-deoxy (DNA)
How the values were obtained:
Format in all cases: in vivo, mouse
[1] = tested on: vascular leakage; test: Vascular leakage, plasma Evans Blue OD620, captopril model (Example 13); details: for Percentage of OD620 nm of Evans Blue dye compared to the PBS basal control, Plasma: captopril Yes
Method: Groups 4, 5, 6, 7, 8, and 9 consisted of 8 mice each and were treated with 2.5 mg/kg, 5 mg/kg, 10 mg/kg, 20 mg/kg, 40 mg/kg, or 80 mg/kg (corresponding to 5 mg/kg, 10 mg/kg, 20 mg/kg, 40 mg/kg, 80 mg/kg, or 160 mg/kg per week), respectively of ISIS 482584 administered subcutaneously twice a week for 3 weeks. At the end of the treatment period, the mice of all the groups were intraperitoneally administered 20 μg of captopril. Groups 4-9 served as the experimental treatment groups for examining the effect of varying doses of ISIS 482584 on captopril-induced vascular permeability.
All the groups were then injected with 30 mg/kg of Evans Blue solution in the tail vein. The mice were sacrificed 30 min after the Evans Blue solution administration and colons, feet, ears, and intestines were harvested. Blood samples were taken through cardiac puncture.
The blood drawn through cardiac puncture was immediately mixed with 3 times the volume of ice-cold ethanol. The solution was centrifuged at 15,000 g for 20 minutes at 4° C. to remove cell debris and precipitated plasma proteins. The ethanol extracts were further purified by ultra-filtration through a 10 kDa MWCO filter. The color intensity of the ethanol extracted plasma solution was then measured at OD620 nm. The results are presented in Table 67 as percentage increase or decrease of the OD values of the Group 1 PBS control.

[2] = tested on: basal vascular permeability; test: Dose-dependent effect on basal vascular permeability, Evans Blue OD600 (Example 14); details: for OD600 nm of Evans Blue dye, Colon / OD600 nm of Evans Blue dye, Ears / OD600 nm of Evans Blue dye, Feet: basal
Method: The effect of varying doses on ISIS 482584 on basal vascular permeability was evaluated.
Group 1 consisted of 8 mice and was treated with PBS administered subcutaneously twice a week for 3 weeks. No other treatment was administered to Group 1 which served as a control group to measure the basal levels of vascular permeability.
Group 2 consisted of 4 mice and was treated with PBS administered subcutaneously twice a week for 3 weeks. At the end of the treatment period, the mice were intraperitoneally administered 30 μg of HOE-140. Group 2 served as a positive control for inhibition of basal vascular permeability.
Groups 3, 4, 5, 6, 7, and 8 consisted of 8 mice each and were treated with 2.5 mg/kg, 5 mg/kg, 10 mg/kg, 20 mg/kg, 40 mg/kg, or 80 mg/kg (corresponding to 5 mg/kg, 10 mg/kg, 20 mg/kg, 40 mg/kg, 80 mg/kg, or 160 mg/kg per week), respectively of ISIS 482584 administered subcutaneously twice a week for 3 weeks. […] served as the experimental treatment groups for examining the effect of varying doses of ISIS 482584 on basal vascular permeability.
All the groups were then injected with 30 mg/kg of Evans Blue solution in the tail vein. The mice were sacrificed 30 min after the Evans Blue solution administration and colons, feet, and ears were harvested and examined for permeability defects. Blood samples were taken through cardiac puncture.
The harvested tissues from the feet, colon, and ears were placed in formamide solution overnight to leach out the Evans Blue dye. The formamide solution containing feet and ear tissue was heated to 55° C. and left overnight. Higher OD values are associated with higher levels of permeability.

[3] = tested on: C1-INH mRNA; test: C1-INH mRNA in liver of mice treated with ISIS 461756 (Example 18); details: liver; all groups ISIS 461756 25 mg/kg/wk; pretreatment PBS or oligonucleotide 80 mg/kg/wk sc 3 weeks
Method: Vascular permeability induced by ISIS 461756, an antisense oligonucleotide which targets murine C1 inhibitor mRNA, increases vascular permeability in mice and replicates the pathology of hereditary angioedema. The effect of ISIS 482584 on this model was evaluated.
One group of 8 mice was treated with 40 mg/kg ISIS 482584 administered subcutaneously twice a week for 3 weeks (weekly dose of 80 mg/kg). A second group of 8 mice was treated with 40 mg/kg of the control oligonucleotide, ISIS 141923, administered subcutaneously twice a week for 3 weeks (weekly dose of 80 mg/kg). A third group of 8 mice was treated with PBS administered subcutaneously twice a week for 3 weeks. On day 14, all the groups were treated with 12.5 mg/kg ISIS 461756 administered subcutaneously twice a week for 3 weeks (weekly dose of 25 mg/kg). A control group of mice was treated with PBS administered subcutaneously twice a week for 3 weeks but was not administered ISIS 461756.
At the end of the treatment period, all the groups were injected with 30 mg/kg of Evans Blue solution into the tail vein. The mice were sacrificed 30 min after the Evans Blue solution administration and colons, feet, ears, and intestines were harvested. The liver was also harvested for RNA analysis.
RNA was isolated from the liver for RT-PCR analysis of C1-INH and PKK mRNAs. The primer probe set for C1-INH is RTS3218 (forward sequence […], designated herein as SEQ ID NO: 2234; reverse sequence […], designated herein as SEQ ID NO: 2235; probe sequence […], designated herein as SEQ ID NO: 2236). The primer probe set for PKK is RTS3287 (forward sequence […], designated herein as SEQ ID NO: 2237; reverse sequence […], designated herein as SEQ ID NO: 2238; probe sequence […], designated herein as SEQ ID NO: 2239). The results are presented in Table 79 as percent inhibition compared to the PBS control not treated with ISIS 461756.

NC(N)=NCCC[C@@H](N)C(=O)N[C@@H](CCCN=C(N)N)C(=O)N1CCC[C@H]1C(=O)N1C[C@H](O)C[C@H]1C(=O)NCC(=O)N[C@@H](Cc1cccs1)C(=O)N[C@@H](CO)C(=O)N1Cc2ccccc2C[C@@H]1C(=O)N1[C@H](C(=O)N[C@@H](CCCN=C(N)N)C(=O)O)C[C@@H]2CCCC[C@@H]21 [HOE-140, Icatibant, reference compound] was tested, and the “Percentage of OD620 nm of Evans Blue dye compared to the PBS basal control, Plasma” value (“Percentage of OD620 nm of Evans Blue dye” for short) ([1]; HOE-140 30 μg ip) was 5%, the “OD600 nm of Evans Blue dye, Colon” value ([2]; HOE-140 30 μg ip) was 0.24 and the “OD600 nm of Evans Blue dye, Ears” value ([2]; HOE-140 30 μg ip) was 0.047. The “OD600 nm of Evans Blue dye, Feet” value ([2]; HOE-140 30 μg ip) was 0.09.
With “ISIS 482584: 5-10-5 MOE gapmer targeting murine PKK, GGCATATTGGTTTTTGGAAT; SEQ ID NO: 2244 (antisense eG*eG*e[5mC]*eA*eT*dA*dT*dT*dG*dG*dT*dT*dT*dT*dT*eG*eG*eA*eA*eT)” the “Percent inhibition of C1-INH mRNA expression compared to the untreated PBS control” value [3] was 77%, the “vascular leakage” value ([1]; 160 mg/kg/week and 80 mg/kg/week, vs PBS negative control treated with captopril) was “less vascular leakage” and the “Percentage of OD620 nm of Evans Blue dye” value ([1]; dose 5 mg/kg) was −23%. The “Percentage of OD620 nm of Evans Blue dye” value ([1]; dose 10 mg/kg) was −20%, the “Percentage of OD620 nm of Evans Blue dye” value ([1]; dose 20 mg/kg) was −26% and the “Percentage of OD620 nm of Evans Blue dye” value ([1]; dose 40 mg/kg) was −31%. The “Percentage of OD620 nm of Evans Blue dye” value ([1]; dose 80 mg/kg) was 40%, the “Percentage of OD620 nm of Evans Blue dye” value ([1]; dose 160 mg/kg) was 91% and the “basal vascular permeability” value ([2]; all doses (Groups 3-8), most of the tissues, vs PBS control) was “reduced basal vascular permeability”. For the same molecule, the “OD600 nm of Evans Blue dye, Colon” value ([2]; 5 mg/kg/week sc, 3 weeks) was 0.32, the “OD600 nm of Evans Blue dye, Ears” value ([2]; 5 mg/kg/week sc, 3 weeks) was 0.009 and the “OD600 nm of Evans Blue dye, Feet” value ([2]; 5 mg/kg/week sc, 3 weeks) was 0.11. The “OD600 nm of Evans Blue dye, Colon” value ([2]; 10 mg/kg/week sc, 3 weeks) was 0.31, the “OD600 nm of Evans Blue dye, Ears” value ([2]; 10 mg/kg/week sc, 3 weeks) was 0.015 and the “OD600 nm of Evans Blue dye, Feet” value ([2]; 10 mg/kg/week sc, 3 weeks) was 0.10. For the same molecule, the “OD600 nm of Evans Blue dye, Colon” value ([2]; 20 mg/kg/week sc, 3 weeks) was 0.26, the “OD600 nm of Evans Blue dye, Ears” value ([2]; 20 mg/kg/week sc, 3 weeks) was 0.009 and the “OD600 nm of Evans Blue dye, Feet” value ([2]; 20 mg/kg/week sc, 3 weeks) was 0.11. The “OD600 nm of Evans Blue dye, Colon” value ([2]; 40 mg/kg/week sc, 3 weeks) was 0.27, the “OD600 nm of Evans Blue dye, Ears” value ([2]; 40 mg/kg/week sc, 3 weeks) was 0.011 and the “OD600 nm of Evans Blue dye, Feet” value ([2]; 40 mg/kg/week sc, 3 weeks) was 0.11. For the same molecule, the “OD600 nm of Evans Blue dye, Colon” value ([2]; 80 mg/kg/week sc, 3 weeks) was 0.24, the “OD600 nm of Evans Blue dye, Ears” value ([2]; 80 mg/kg/week sc, 3 weeks) was 0.014 and the “OD600 nm of Evans Blue dye, Feet” value ([2]; 80 mg/kg/week sc, 3 weeks) was 0.09. The “OD600 nm of Evans Blue dye, Colon” value ([2]; 160 mg/kg/week sc, 3 weeks) was 0.25, the “OD600 nm of Evans Blue dye, Ears” value ([2]; 160 mg/kg/week sc, 3 weeks) was 0.019 and the “OD600 nm of Evans Blue dye, Feet” value ([2]; 160 mg/kg/week sc, 3 weeks) was 0.11.
